From patent US20180153995A1, “USE OF ANTIMICROBIAL POLYMERS FOR RE-SENSITIZATION OF MICROORGANISMS UPON EMERGENCE OF RESISTANCE TO ANTI-MICROBIAL AGENTS” (Technion Research & Development Foundation Limited, priority 2008, published 2018)
Read-outs that look alike come from different tables or passages of the source.

Assays:
S. maltophila 748 = test: Antibiotic MIC by microdilution with or without sub-MIC polymer; type: cell-based, Stenotrophomonas maltophila
MRSA 15903 = test: microbe, parasite or virus in culture; type: cell-based, Staphylococcus aureus
Experimental: The fractionary inhibitory (FIC) concentration index for combinations of two antimicrobial agents was calculated as follows: FIC index=FICA+FICB=A/MICA+B/MICB where A and B are the MIC values of agent A and agent B in the combination, MICA and MICB are the MICs of agent A and agent B alone, and FICA and FICB are the FICs of agent A and agent B.
The FIC indexes were interpreted as follows: less than 0.5 indicates a clear re-sensitizing effect; from 0.5 to 4 indicates a marginal or null re-sensitizing effect; and over 4 indicates antagonism.
Experimental data for FIG. 4 were obtained as follows.

S. aureus 17314 = test: Antibiotic MIC by microdilution with or without sub-MIC polymer; type: cell-based, Staphylococcus aureus; conditions: S. aureus 17314; +½ MIC (3.12 μM) C16(9-ene)KKNC12KNH2
E. coli 14182 = test: as above; type: cell-based, Escherichia coli; conditions: polymer at ½ of its MIC
[1] = test system: E. coli K-12 efflux knockout mutant; type: cell-based, Escherichia coli; conditions: E. coli AG100A (efflux−)
Experimental: (§1) MICs were determined by microdilution susceptibility testing in 96-well plates (by Nunc) using inocula of 10^5 bacteria per ml. Cell populations were evaluated by optical density measurements at 620 nm and were calibrated against a set of standards. Hundred (100) μl of a bacterial suspension were added to 100 μl of culture medium (control) or to 100 μl of culture medium containing various polymer concentrations in 2-fold serial dilutions. Inhibition of proliferation was determined by optical density measurements at 620 nm after an incubation period of 24 hours at 37° C.

[2] = test system: E. coli K-12 resistant wild type; type: cell-based, Escherichia coli; conditions: E. coli AG100 (w.t.)
E. coli 16327 = test: microbe, parasite or virus in culture; conditions: for Antibiotic MIC: E. coli 16327
Experimental: as §1
(§2) 100 μl of a bacterial suspension were added to 100 μl of culture medium (control) or to 100 μl of culture medium containing various antibiotic and C14(9-ene)KKNC12KNH2 (SEQ ID NO: 5) concentrations in 2-fold serial dilutions. Inhibition of proliferation was determined by optical density measurements at 620 nm after an incubation period of 24 hours at 37° C.

E. coli 14384 = test: Antibiotic MIC by microdilution with or without sub-MIC polymer; type: cell-based, Escherichia coli; conditions: E. coli 14384
Experimental: as §1, §2

S. aureus 43300 = test: as above; type: cell-based, Staphylococcus aureus
Experimental: as §1
Table 8 below presents the MIC values of antibiotics in presence or absence of C12(5-ene)KKNC12KNH2 (SEQ ID NO: 2) at sub-MIC levels of the polymer, as measured for the S. aureus strains 43300 (ATCC), 15819 (clinical isolate), 15877 (clinical isolate) and 15852 (clinical isolate). MICs were determined by microdilution susceptibility testing in 96-well plates (Nunc) using inocula of 10^5 bacteria per ml. One hundred (100) μl of a bacterial suspension were added to 100 μl of culture medium (control) or to 100 μl of culture medium containing various antibiotic and C12(5-ene)KKNC12KNH2 (SEQ ID NO: 2) concentrations in 2-fold serial dilutions. Inhibition of proliferation was determined by optical density measurements at 620 nm after an incubation period of 24 hours at 37° C.
as §2

[3] = polymer at ¼ of its MIC (Table 16)
[4] = polymer at ½ of its MIC (Table 16)
[5] = polymer at ⅓ of its MIC (Table 16)
[6] = the OAK at ¼ of its MIC (Table 17)
[7] = the OAK at ½ of its MIC (Table 17)
[8] = the OAK at ⅓ of its MIC (Table 17)
[9] = +¼ MIC (1.6 μM) C14(9-ene)KKNC12KNH2
[10] = +½ MIC (3.12 μM) C14(9-ene)KKNC12KNH2
[11] = +⅓ MIC (2.1 μM) C14(9-ene)KKNC12KNH2

gentamicin
4 µg/mL: Antibiotic MIC in presence of C12K(NC8K)7NH2 (SEQ ID NO: 4), +¼ MIC [1, 3] | Antibiotic MIC in presence of C12K(NC8K)7NH2 (SEQ ID NO: 4), +⅓ MIC [1, 5] | Antibiotic MIC in presence of the OAK, +¼ MIC [1, 6] | Antibiotic MIC in presence of the OAK, +½ MIC [1, 7] | Antibiotic MIC in presence of the OAK, +⅓ MIC [1, 8] | Antibiotic MIC in presence of C12K(NC8K)7NH2 (SEQ ID NO: 4), +¼ MIC [2, 3] | Antibiotic MIC in presence of C12K(NC8K)7NH2 (SEQ ID NO: 4), +⅓ MIC [2, 5] | Antibiotic MIC in presence of the OAK, +¼ MIC [2, 6] | Antibiotic MIC in presence of the OAK, +½ MIC [2, 7] | Antibiotic MIC in presence of the OAK, +⅓ MIC [2, 8] | Antibiotic MIC (E. coli 16327; [9]) | Antibiotic MIC (E. coli 16327; +¼ MIC (1.6 μM) C16(9-ene)KKNC12KNH2) | Antibiotic MIC (E. coli 16327; +½ MIC (3.12 μM) C12K(KNC12K)2NH2) | Antibiotic MIC (E. coli 16327; +½ MIC (3.12 μM) C16(9-ene)KKNC12KNH2) | Antibiotic MIC (E. coli 16327; [11]) | Antibiotic MIC (E. coli 16327; +⅓ MIC (2.1 μM) C16(9-ene)KKNC12KNH2) | Antibiotic MIC (E. coli 16327; no polymer (None), Table 9) | Antibiotic MIC (E. coli 16327; no polymer (None), Table 10) | MIC, Alone (E. coli 16327; E. coli U16327, antibiotic alone (Table 22)) | MIC, ¼ + MIC OAK (E. coli 16327; E. coli U16327, with C12K(KNC10K)3NH2 (SEQ ID NO: 10) at ¼ of its MIC) | MIC, ⅓ + MIC OAK (E. coli 16327; E. coli U16327, with C12K(KNC10K)3NH2 (SEQ ID NO: 10) at ⅓ of its MIC) | Antibiotic MIC, None (E. coli 16327; E. coli U-16327, antibiotic alone (Table 15)) | Antibiotic MIC in presence of C12K(NC8K)7NH2 (SEQ ID NO: 4), +¼ MIC (E. coli 16327; E. coli U-16327, polymer at ¼ of its MIC) | Antibiotic MIC (E. coli 14384; [9]) | Antibiotic MIC (E. coli 14384; [11]) | Antibiotic MIC, None (E. coli 14384; antibiotic alone (Table 15)) | Antibiotic MIC (E. coli 14384; no polymer (None), Table 9) | Antibiotic MIC (E. coli 14384; no polymer (None), Table 14) | Antibiotic MIC in presence of C12K(NC8K)7NH2 (SEQ ID NO: 4), +¼ MIC (E. coli 14384; polymer at ¼ of its MIC)
64 to 128 µg/mL: Antibiotic MIC in presence of C12K(NC8K)7NH2 (SEQ ID NO: 4), +½ MIC (E. coli 14182) | Antibiotic MIC (S. aureus 43300; [9]) | Antibiotic MIC (S. aureus 43300; [10]) | Antibiotic MIC (S. aureus 43300; [11]) | Antibiotic MIC (S. aureus 43300; no polymer (None), Table 9)
128 µg/mL: MIC (MRSA 15903; MRSA 15903, +¼ polymer MIC (1.6 μM) NC12(KNC12K)2NH2) | MIC (MRSA 15903; MRSA 15903, +½ polymer MIC (3.1 μM) NC12(KNC12K)2NH2) | MIC (MRSA 15903; MRSA 15903, +⅓ polymer MIC (2.1 μM) NC12(KNC12K)2NH2) | MIC (MRSA 15903; S. aureus CI-15903, +polymer (½ MIC) C12(5-ene)KKNC12KNH2) | MIC (MRSA 15903; S. aureus CI-15903, +polymer (⅓ MIC) C12(5-ene)KKNC12KNH2)
2 to 4 µg/mL: Antibiotic MIC in presence of C12K(NC8K)7NH2 (SEQ ID NO: 4), +½ MIC [1, 4] | MIC, ½ + MIC OAK (E. coli 16327; E. coli U16327, with C12K(KNC10K)3NH2 (SEQ ID NO: 10) at ½ of its MIC) | Antibiotic MIC in presence of C12K(NC8K)7NH2 (SEQ ID NO: 4), +⅓ MIC (E. coli 14384; polymer at ⅓ of its MIC)
2 µg/mL: Antibiotic MIC in presence of C12K(NC8K)7NH2 (SEQ ID NO: 4), +½ MIC [2, 4] | Antibiotic MIC (E. coli 16327; [10]) | Antibiotic MIC in presence of C12K(NC8K)7NH2 (SEQ ID NO: 4), +⅓ MIC (E. coli 16327; E. coli U-16327, polymer at ⅓ of its MIC) | Antibiotic MIC (E. coli 14384; [10]) | Antibiotic MIC in presence of C12K(NC8K)7NH2 (SEQ ID NO: 4), +½ MIC (E. coli 14384; polymer at ½ of its MIC)
4 to 8 µg/mL: Antibiotic MIC, None ([1]; antibiotic alone (Table 16)) | Antibiotic MIC, None ([1]; antibiotic alone (Table 17)) | Antibiotic MIC, None ([2]; antibiotic alone (Table 16)) | Antibiotic MIC, None ([2]; antibiotic alone (Table 17))
8 µg/mL: Antibiotic MIC (S. maltophila 748; +½ MIC (3.12 μM) C12K(KNC12K)3NH2) | Antibiotic MIC (E. coli 16327; +¼ MIC (1.6 μM) C12K(KNC12K)2NH2) | Antibiotic MIC (E. coli 16327; +⅓ MIC (2.1 μM) C12K(KNC12K)2NH2) | Antibiotic MIC (E. coli 16327; no polymer (None), Table 12)
64 µg/mL: Antibiotic MIC (S. aureus 17314) | Antibiotic MIC (S. aureus 43300; no polymer (None), Table 10)
1 to 2 µg/mL: Antibiotic MIC in presence of C12K(NC8K)7NH2 (SEQ ID NO: 4), +½ MIC (E. coli 16327; E. coli U-16327, polymer at ½ of its MIC) | Antibiotic MIC (E. coli 14384; +½ MIC C12K(NC8K)5NH2)
16 µg/mL: Antibiotic MIC (S. maltophila 748; +¼ MIC (1.6 μM) C12K(KNC12K)3NH2) | Antibiotic MIC (S. maltophila 748; +⅓ MIC (2.1 μM) C12K(KNC12K)3NH2) | Antibiotic MIC (S. maltophila 748; no polymer (None), Table 13)
